System: neonatal cardiomyocytes
Experiment: Videomicroscopy of contraction (composite signal ΔS) of neonatal cardiomyocyte monolayers
Type: cell-based, rat
Details: 1 minute after injection
Experimental: All animal-handling procedures were concordant with the Canadian Council on Animal Care guidelines and were approved by the institutional Animal Research Ethics Committee. Isolation was performed according to the protocol of the neonatal cardiomyocyte isolation kit from Worthington. In summary, one to three days old rats (Sprague-Dawley, Charles River) were sacrificed by decapitation. Beating heart were removed from the rats and immediately put in cold Ca^2+ and Mg^2+-free Hank's Balanced Salt Solution. Ventricular muscle was selected by excision and tissue was minced on ice into 1-3 mm^3 pieces. The mixture was subjected to purified enzymatic digestion (trypsin and collagenase). Isolated cells (enriched cardiomyocytes) were counted and seeded at a density of 10^6 cells/mL in the seeding area of the membrane pre-coated with 0.2% porcine-derived gelatin (G1890, Sigma) and 0.00125% fibronectin solution (F1141, Sigma). Cells were grown for 24 hours in DMEM (319-050-CL, Wisent) with 5% fetal bovine serum (FBS, SH30396.03, Fisher Scientic Co. Ltd) and 1% penicillin/streptomycin (450-201-EL, Wisent). Cardiomyocytes were then FBS starved with 1% penicillin/streptomycin in DMEM 24 h prior to the experiments. Acute effects of the β-adrenergic agonist, isoproterenol (ISO, 16504, Sigma-Aldrich) was studied by videomicroscopy with final concentration of 100 nM at 1 minute after injection. […]

In the case of `CC(C)NCC(O)c1ccc(O)c(O)c1` (centres unmarked) [ISO, isoproterenol], the “slope of the linear regression of <RatioC/R> as a function of <T>” value (ISO 100 nM, 0.146 for CTL, <T> and group effects p<0.001) is reported as 0.490 and the period of activity (ISO final concentration 100 nM, vs. 1.9±2.4 s in CTL, p<0.05) is reported as 0.9 ± 0.6 s.
